From patent publication US7323596B2, “Antimicrobial agents” (De Novo Pharmaceuticals Ltd., priority 2000, dated 2008)
In brackets after ≈: the same amount, converted by molar mass.

What was measured:
Haemophilia influenza = experiment: MIC by standard agar plate dilution method; assay type: cell-based
Experimental: The susceptibilities of strains of bacteria to the compound of Example 1 were determined by a standard agar plate dilution method following recommendations in British Society for Antimicrobial Chemotherapy Working Party. 1991, “A guide to sensitivity testing British Society for Antimicrobial Chemotherapy, London, United Kingdom”. Briefly, Iso-Sensitest agar (pH 7.2: Oxoid, United Kingdom) is employed, supplemented with 5% horse blood (Oxoid) and 20 μg of NAD (Sigma) per ml are added to support growth of fastidious bacteria. The inoculum used is approximately 10^4 colony forming units of each isolate contained in a volume of 1 μl. Plates are incubated 18 to 24 hr in air, or for fastidious bacteria an atmosphere enriched with 4-6% carbon dioxide at 35° C. The MIC is determined as the lowest concentration of an Antimicrobial tested that inhibited growth of the inoculum, disregarding a single persisting colony or faint haze caused by the inoculation.

E coli PDF (Ni) = E coli PDF (Ni) (Escherichia coli, UniProt P0A6K3); experiment: inhibition of the PDF E. coli (Ni) enzyme; assay type: biochemical; settings: Ni form of E. coli PDF enzyme
Chain of E coli PDF (Ni) (P0A6K3 whole entry): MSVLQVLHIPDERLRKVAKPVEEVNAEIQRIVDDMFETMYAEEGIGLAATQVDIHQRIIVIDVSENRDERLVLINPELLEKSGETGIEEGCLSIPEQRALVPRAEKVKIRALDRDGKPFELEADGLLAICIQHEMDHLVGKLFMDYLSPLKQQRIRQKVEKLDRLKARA
Experimental: Examples 2-5 were prepared in a manner analogous to example 1. Also shown is there inhibition of the PDF E. coli(Ni) enzyme.

Row | SMILES | MIC (Haemophilia influenza) | IC50 (E coli PDF (Ni))
1 | CCCC[C@H](CN(O)C=O)NC(=O)Cc1cccc2ccccc12 [Example 1, N-{1R-[(Formyl-hydroxy-amino)-methyl]-pentyl}2-naphthalen-1-yl-acetamide] | 0.5 to 2 µg/mL (≈ 1.52 to 6.09 µM) | 
2 | CCCC[C@H](CN(O)C=O)NC(=O)c1cn(CC)c2cc3c(cc2c1=O)OCO3 [Example 2, 5-Ethyl-8-oxo-5,8-dihydro-[1,3]dioxolo[4,5]quinoline-7-carboxylic acid {1R-[(formyl-hydroxy-amino)-methyl]-pentyl}amide] |  | 30 nM
3 | CCCC[C@H](CN(O)C=O)NC(=O)c1cn(C2CCCCC2)c2ccccc2c1=O [Example 3, 1-Cyclohexyl-4-oxo-1,4-dihydro-quinoline-3-carboxylic acid {1R[(formyl-hydroxy-amino)-methyl]-pentyl}-amide] |  | 60 nM
4 | CCCC[C@H](CN(O)C=O)NC(=O)c1cn(CC)c2ccc(Cl)cc2c1=O [Example 4, 6-Chloro-1-ethyl-4-oxo-1,4-dihydro-quinoline-3-carboxylic acid {1R[(formyl-hydroxy-amino)-methyl]-pentyl}-amide] |  | 20 nM
5 | CCCC[C@H](CN(O)C=O)NC(=O)c1coc2ccccc2c1=O [Example 5, 4-Oxo-4H-chromene-3-carboxylic acid {1R-[(formyl-hydroxy-amino)-methyl]-pentyl}amide] |  | 200 nM
